Assay results as given in patent publication US6710060B2, “4-hydroxypiperidine derivatives having antiarrhythmic activity” (Mochida Pharmaceutical Co., Ltd., priority 1999, dated 2004).

Row | SMILES | melting point [°C]
1 | CC(C)Oc1ccc(N(C)CCC2(O)CCN(Cc3ccc4ccccc4c3)CC2)cc1 [Example 80, 4-[2-[N-methyl-N-(4-isopropoxyphenyl)amino]ethyl]-1-(2-naphthylmethyl)piperidin-4-ol] | 76.2 to 76.8
2 | CC(C)Oc1ccc(N(C)CCC2(O)CCN(Cc3ccc([N+](=O)[O-])cc3)CC2)cc1 [Example 84, 4-[2-[N-methyl-N-(4-isopropoxyphenyl)amino]ethyl]-1-(4-nitrophenylmethyl)piperidin-4-ol] | 62.5 to 63.1
3 | CC(C)Oc1ccc(N(C)CCC2(O)CCN(Cc3cccc(C(F)(F)F)c3)CC2)cc1 [Example 85, 4-[2-[N-methyl-N-(4-isopropoxyphenyl)amino]ethyl]-1-[3-(trifluoromethyl)phenylmethyl]piperidin-4-ol] | 60.8 to 61.1
4 | CC(C)Oc1ccc(N(C)CCC2(O)CCN(Cc3ccc(F)cc3F)CC2)cc1 [Example 87, 1-(2,4-difluorophenylmethyl)-4-[2-[N-methyl-N-(4-isopropoxyphenyl)amino]ethyl]piperidin-4-ol] | 77.6 to 77.9
5 | CC(C)Oc1ccc(N(C)CCC2(O)CCN(Cc3ccc(F)c(C(F)(F)F)c3)CC2)cc1 [Example 88, 1-[4-fluoro-3-(trifluoromethyl)phenylmethyl]-4-[2-[N-methyl-N-(4-isopropoxyphenyl)amino]ethyl]piperidin-4-ol] | 58.8 to 62.8
6 | CC(C)Oc1ccc(N(C)CCC2(O)CCN(Cc3ccc(OC(F)(F)F)cc3)CC2)cc1 [Example 89, 4-[2-[N-methyl-N-(4-isopropoxyphenyl)amino]ethyl]-1-(4-trifluoromethoxyphenylmethyl)piperidin-4-ol] | 84.7 to 85.1
7 | CC(C)Oc1ccc(N(C)CCC2(O)CCN(Cc3ccc(OC(C)C)cc3F)CC2)cc1 [Example 90, 1-(2-fluoro-4-isopropoxyphenylmethyl)-4-[2-[N-methyl-N-(4-isopropoxyphenyl)amino]ethyl]piperidin-4-ol] | 65.1 to 66.1
8 | CC(C)Oc1ccc(N(C)CCC2(O)CCN(Cc3ccc(Br)cc3F)CC2)cc1 [Example 93, 1-(4-bromo-2-fluorophenylmethyl)-4-[2-[N-methyl-N-(4-isopropoxyphenyl)amino]ethyl]piperidin-4-ol] | 99.8 to 100.9
9 | CC(C)Oc1ccc(N(C)CCC2(O)CCN(Cc3cccc(F)c3)CC2)cc1 [Example 94, 1-(3-fluorophenylmethyl)-4-[2-[N-methyl-N-(4-isopropoxyphenyl)amino]ethyl]piperidin-4-ol] | 52.5 to 54.6
10 | CCOC(=O)c1ccc(CN2CCC(O)(CCN(C)c3ccc(OC(C)C)cc3)CC2)cc1 [Example 106, 1-[4-(ethoxycarbonyl)phenylmethyl]-4-[2-[N-methyl-N-(4-isopropoxyphenyl)amino]ethyl]piperidin-4-ol] | 50.3 to 51.6
11 | CSc1ccc(CN2CCC(O)(CCN(C)c3ccc(OC(C)C)cc3)CC2)cc1 [Example 109, 4-[2-[N-methyl-N-(4-isopropoxyphenyl)amino]ethyl]-1-[4-(methylthio)phenylmethyl]piperidin-4-ol] | 66.2 to 68
12 | COC(=O)c1cccc(CN2CCC(O)(CCN(C)c3ccc(OC(C)C)cc3)CC2)c1 [Example 111, 1-[3-(methoxycarbonyl)phenylmethyl]-4-[2-[N-methyl-N-(4-isopropoxyphenyl)amino]ethyl]piperidin-4-ol] | 53.8 to 54.7
13 | CC(C)Oc1ccc(NCCC2(O)CCN(Cc3ccc(C(F)(F)F)cc3)CC2)cc1 [Example 125, 4-[2-[N-(4-isopropoxyphenyl)amino]ethyl]-1-[4-(trifluoromethyl)phenylmethyl]piperidin-4-ol] | 152.3 to 153.1
14 | CCOc1ccc(N(C)CCC2(O)CCN(C(c3ccccc3)c3ccccc3)CC2)cc1 [Example 133, 1-diphenylmethyl-4-[2-[N-(4-ethoxyphenyl)-N-methylamino]ethyl]piperidin-4-ol] | 94.3 to 95.8
